According to US9744196B2, “Composition for parenteral administration, method for producing and method use thereof” (N2 PHARMACEUTICALS LTD, priority 2013, dated 2017):

Test system: white rats
Test: Adaptogenic (antistress) properties, shaker-induced transport stress
Assay type: in vivo
Protocol: Tests were conducted on 84 white rats and 36 white mice using pharmacological, haematological, biochemical and immunologic assays known in the art. Upon studying beneficial effects of composition A on the organisms of laboratory animals, certain haematological and immunobiological indices of the test and control animals were considered. Haematological parameters were evaluated in blood specimens by methods known in the art: white blood cells count per 1 cubic millimeter using Gorjaev's chamber. The following immunobiological indices were counted: blood protein content, glucose, phagocytosis and a number of other parameters, characterizing condition of an organism. The total protein content in blood serum was measured by refractometric analysis. Refractive index of blood serum depends mainly on the amount of proteins.
Glucose concentration was measured using the ortho-toluidine method based on staining of glucose compound with ortho-toluidine in acetic acid solution, the intensity of said being proportional to the glucose concentration.
The test was conducted on 12 rats, 4 animals being in each of three groups. Stress in experimental white rats was induced using a shaking machine simulating transport (physical) stress. The box with animals was placed onto the shaker and held atop the operating machine for 30-40 min. The most informative parameters, characterizing the onset and development of stress response (stress mediators): glucose, total protein and leukocytes (WBC) levels, were measured in blood of the white rats.
Composition A was administered to the animals of the 1st group intramuscularly 3 days previous to stress induction in a dose of 0.2 ml. 2.5% solution of neuroleptic agent aminazin in a dose of 0.5 mg per capita was administered to the animals of the 2nd group. A normal saline solution was administered intramuscularly to the animals of the 3rd (control) group. Rats' blood examination to estimate the above parameters was performed 1 h and 24 h after stress induction.

[1] = 24 hours after stress induction

Structure (SMILES): CN(C)CCCN1c2ccccc2Sc2ccc(Cl)cc21 [Aminazin, aminazin]
- Glucose (1 hour after stress induction): 6.46 ± 0.45 mmol/L
- Leukocytes (WBC) (1 hour after stress induction): 4.3 ± 0.4 10^3/uL
- Total protein (1 hour after stress induction): 66.0 ± 0.5 g/L
- Glucose (1 hour after stress induction, listed as aminazin): 6.46 ± 0.45 mmol/L
- Glucose [1]: 6.25 ± 0.3 mmol/L
- Leukocytes (WBC) [1]: 6.1 ± 0.3 10^3/uL
- Total protein [1]: 72.4 ± 1.6 g/L
- Glucose (24 hours after stress induction, listed as aminazin): 6.25 ± 0.3 mmol/L
